Patent US10813904B2, “Small molecule anticancer agents” (University of Florida Research Foundation, Incorporated, priority 2017, dated 2020)
Entries after “also recorded” stand apart in the source; their conditions may differ.

Experiments:
Format in all cases: cell-based
[1] = tested on: MDA-MB-468 cells; test: Immunoblot analysis of MDA-MB-468 cell extracts; conditions: for ER stress response / UPR activation / HER3 levels / Akt phosphorylation / PARP cleavage (cell death): 2-DOG 4 mM; for ER stress response / UPR activation / Akt phosphorylation / PARP cleavage (cell death): DTDO 20 μM; for ATF4 and CHOP expression: compared with 20 μM RBF3
Method: (§1) The following cell lines were purchased from American Type Culture Collection (ATCC) (Manassas, Va.): MDA-MB-468, BT474, T47D, SKBR3, MDA-MB-231, HCC1954, HEK 293, TSC2-Ang1, and BxPC3. The HCI-012 cell line was derived from the HCI-012 Patient-Derived Xenograft tumor line provided by Dr. Alana Welm using conditional cell reprogramming. Wild type and eIF2α[S51A] homozygous knock-in Mouse Embryo Fibroblasts (MEFs) were described previously.
(§2) Cells were grown in Dulbecco's modified Eagle's medium (GE Healthcare Life Sciences Logan, Utah) supplemented with 10% fetal bovine serum (10% FBS-DMEM) in a humidified 37° C. incubator with 5% CO2. Cell lysates were prepared using a buffer containing 1% Triton X100, 20 mM HEPES (pH 7.4), 1 mM EDTA, 1 mM EGTA, 0.1% 3-mercaptoethanol, 5% glycerol, 10 nM microcystin, 200 μM Na3VO4 and 40 mM Na2H2P2O7 as described previously.
(§3) Immunoblot analysis was carried out using primary antibodies purchased from Santa Cruz Biotechnology (Dallas, Tex.) [Actin, sc-1616-R; ERK, sc-93; JNK, sc-572; P-JNK, sc-6254; Src, sc-18; EGFR, sc-03; GRP78, sc-13539; Phosphotyrosine (PY99), sc-7020], Cell Signaling Technology (Beverly, Mass.) [Akt, #4691; P-Akt[T308], #13038; P-Akt[S473], #9271; ATF4, #11815; CHOP, #2895; P-Src[Y527], #2105; EGFR, #4267; HER2, #2165; HER3, #4754; Calnexin, #2679; #13024; P-Erk, #9101; IRE1α, #3294; XBP1s, #12782; PARP, #9532; PDI, #3501; PERK, #5683; S6, #2212; P-S6, #2211; P-Src[Y416], #6943], BD Transduction Laboratories (San Jose, Calif.) [PAI-1, 612024], Millipore (Temecula, Calif.) [anti-phosphotyrosine (4G10), 05-321], and Sigma-Aldrich (St. Louis, Mo.) [anti-FLAG (M2), F3165]. To quantify immunoblot results, bands were analyzed using ImageJ (imagej.nih.gov/ij/) and each band was normalized to the corresponding Actin loading control band.

[2] = tested on: XBP1 mRNA splicing in MDA-MB-468 cells; test: RT-PCR of XBP1 mRNA splicing; conditions: 24 hours; RBF3 20 μM, DTT 2 mM
Method: RNA was isolated from MDA-MB-468 and BT474 cells with Trizol Reagent (Invitrogen) according to the manufacturer's instructions, and reverse transcribed to cDNA under the following conditions: 25° C. for 10 min, 42° C. for 30 min, and 95° C. for 5 min. PCR was performed using XBP1 and β-Actin primers. The primers used to amplify XBP1 are as follows: Forward: […] and Reverse: […]. The primers used to amplify (3-Actin are as follows: Forward: […] and Reverse: […]. Reactions were performed as follows: 96° C. for 5 min followed by 35 cycles of 95° C. for 45 sec, 60° C. for 1 min, and 72° C. for 30 sec. Reaction products were visualized on 3% agarose gels.

[3] = tested on: BT474 cells; test: Immunoblot analysis of BT474 cell extracts
Method: as §1, §2, §3

[4] = tested on: MDA-MB-468 or BT474 cells; test: Immunoblot analysis, MDA-MB-468 or BT474 cells (text does not separate the lines); conditions: for DDA activation of the ER stress response when protein synthesis is inhibited: 20 μM RBF3 with 20 μM CHX or 5 μg/ml Puromycin
Method: as §2, §3

[5] = tested on: Mouse Embryo Fibroblasts (MEFs); test: Immunoblot analysis of Mouse Embryo Fibroblasts; conditions: 24 hours, thapsigargin 400 nM, tunicamycin 500 ng/ml; for Akt phosphorylation, wild type MEFs / ER stress response / UPR, wild type MEFs / PARP cleavage, wild type MEFs: RBF3 20 μM, DTT 5 mM
Method: as §1, §2, §3

[6] = tested on: HCC1954 cells; test: Immunoblot analysis of HCC1954 cells; conditions: 24 hour; 20 μM RBF3, 20 μM Lapatinib
[7] = tested on: T47D cells; test: Immunoblot analysis of T47D stable cell lines (vector, EGFR or HER2 overexpressing); conditions: 20 μM NSC624205, 24 hours
Method: Recombinant retroviruses were prepared and used to produce stable cell lines as described previously. Retroviral vectors encoding EGFR (plasmid 11011, [68]) and HER2 (plasmid 40978 [69]) were from Addgene (Cambridge, Mass.).
as §2, with “previously. […]” for “previously.”

[8] = tested on: MDA-MB-468 cells; test: MTT cell viability assay, MDA-MB-468; conditions: 72 hours, increasing concentrations
Method: (§4) Cell viability was evaluated using MTT (3-(4,5-dimethylthiazol-2-yl)-2,5-diphenyltetrazolium bromide) assays carried out based on the manufacturer's instructions (kit CGD1, Sigma-Aldrich, St. Louis, Mo.)

[9] = tested on: BT474 cells; test: MTT cell viability assay, BT474; conditions: 72 hours
Method: as §4

[10] = RBF3 20 μM, thapsigargin 400 nM, DTT 2 mM
[11] = thapsigargin 400 nM, tunicamycin 500 ng/ml, DTT 2 mM
[12] = 24 hours, RBF3 20 μM, 2-DOG 4 mM
[13] = 24 hours, RBF3 20 μM, thapsigargin 400 nM
[14] = 2.5 μM Gefitinib or Lapatinib, 24 hours
[15] = increasing concentration, 24 hours (FIG. 5B)

O[C@H](CS)[C@H](O)CS (racemic) [DTT, dithiothreitol]
ER stress response / UPR activation ([1]; 24 hours, DTT 2 mM): only weakly activated | GRP78 expression ([1]; 24 hours, RBF3 20 μM, DTT 2 mM): only weakly induces | HER3 levels ([1]; 24 hours, RBF3 20 μM, DTT 2 mM): less so; also recorded: induces downregulation | Akt phosphorylation ([1]; 24 hours, RBF3 20 μM, DTT 2 mM): suppresses | PARP cleavage (cell death) ([1]; 24 hours, RBF3 20 μM, DTT 2 mM): only weakly induces | EGFR levels ([1]; 24 hours, RBF3 20 μM, thapsigargin 400 nM, tunicamycin 500 ng/ml, DTT 2 mM): induces downregulation | XBP1s expression [1, 10]: does not upregulate | ATF4 and CHOP expression [1, 11]: does not upregulate | IRE1-dependent XBP1 mRNA processing / splicing [2]: does not upregulate | EGFR and HER2 expression ([3]; 24 hours, RBF3 20 μM): only does so in the MDA-MB-468 line | XBP1s and GRP78 expression (ER stress markers) ([3]; 24 hours, RBF3 20 μM): increased | Akt phosphorylation [3, 12]: decreased | ATF4 and CHOP expression [3, 13]: little upregulation | concentrations that activate UPR / induce a similar level of ER stress [4]: millimolar concentrations | Akt phosphorylation, wild type MEFs [5]: weakly suppressed | ER stress response / UPR, wild type MEFs [5]: did not induce | PARP cleavage, wild type MEFs [5]: induced PARP cleavage

NCCOB(c1ccccc1)c1ccccc1 [2-APB, 2-aminoethoxydiphenyl borate]
RBF3-induced downregulation of HER3, Akt dephosphorylation, or PARP cleavage, with 2-APB [4]: did not alter | RBF3-mediated GRP78 upregulation, with 2-APB [4]: reduced

O=CC[C@@H](O)[C@H](O)[C@H](O)CO [2-DOG, 2-deoxyglucose]
ER stress response / UPR activation ([1]; 24 hours, DTT 2 mM): strongly activated UPR | HER3 levels ([1]; 24 hours, RBF3 20 μM, DTT 2 mM): did not cause downregulation | Akt phosphorylation ([1]; 24 hours, RBF3 20 μM, DTT 2 mM): did not cause downregulation | PARP cleavage (cell death) ([1]; 24 hours, RBF3 20 μM, DTT 2 mM): did not increase cell death | HER3 expression ([3]; 24 hours, 2-DOG 4 mM): did not cause downregulation | PARP cleavage ([3]; 24 hours, 2-DOG 4 mM): did not increase cell death | UPR activation ([3]; 24 hours, 2-DOG 4 mM): strongly activated UPR | Akt phosphorylation [3, 12]: did not cause downregulation

C[C@@H]1C[C@@H]([C@H](O)CC2CC(=O)NC(=O)C2)C(=O)[C@@H](C)C1 [CHX, cycloheximide]
RBF3-mediated UPR on co-treatment with CHX ([1]; 2-16 hrs): rapidly and persistently blocked | HER2 expression, RBF3 with CHX ([3]; 24 hour, 20 μM RBF3, 20 μM CHX): partially restored | DDA-mediated downregulation of EGFR or HER3, with CHX ([4]; 8 hours, 20 μM RBF3, 20 μM CHX): did not overcome | RBF3-induced PARP cleavage and Akt dephosphorylation, with CHX ([4]; 8 hours, 20 μM RBF3, 20 μM CHX): partly overcame | DDA activation of the ER stress response when protein synthesis is inhibited ([4]; 8 hours): reduced | CHX blockade of RBF3-induced PARP cleavage ([4]; 24 hour treatment): less apparent

COc1cc2ncnc(Nc3ccc(F)c(Cl)c3)c2cc1OCCCN1CCOCC1 [Gefitinib]
CHOP expression, combination with RBF3 [1, 14]: cooperated with RBF3 to upregulate | concentration of RBF3 required to downregulate HER3 levels and Akt phosphorylation, on co-treatment [1, 14]: lowered

CS(=O)(=O)CCNCc1ccc(-c2ccc3ncnc(Nc4ccc(OCc5cccc(F)c5)c(Cl)c4)c3c2)o1 [Lapatinib]
concentration of RBF3 required to downregulate HER3 levels and Akt phosphorylation, on co-treatment [1, 14]: lowered | CHOP expression, Lapatinib with RBF3 [6]: cooperated with RBF3 to upregulate | RBF3-induced UPR with respect to GRP78, XBP1s, or ATF4 levels, with Lapatinib [6]: only weakly potentiated

O=S(O)CCCCSSCCCCSSCCCCS(=O)O [NSC624205]
HER3 expression in EGFR or HER2 overexpressing T47D cells [7]: reduced HER3 expression to very low levels; also recorded: more sensitive to downregulation

O=C(CCSSCCCCS(=O)[O-])OCC(COC(=O)CCSSCCCCS(=O)[O-])(COC(=O)CCSSCCCCS(=O)[O-])COC(=O)CCSSCCCCS(=O)[O-].[Na+].[Na+].[Na+].[Na+] (centres unmarked) [PEMP-DDA]
Akt phosphorylation, comparison of bi-, tri- and tetravalent DDAs [1, 15]: more than RBF3 or Bn-DDA | HER3 levels, comparison of bi-, tri- and tetravalent DDAs [1, 15]: more than RBF3 or Bn-DDA | cell viability (MTT) [8]: reduced cell viability in a concentration-dependent manner | HER2 expression, quantified, compared with RBF3 ([3]; same drug concentrations, 24 hours (FIG. 6B)): significantly more than RBF3 | PARP cleavage (cPARP), quantified, compared with RBF3 ([3]; same drug concentrations, 24 hours (FIG. 6C)): significantly more than RBF3 | cell viability (MTT) [9]: reduced BT474 cell viability more than RBF3

COc1ccc(C[C@H](N)C(=O)N[C@H]2[C@@H](O)[C@H](n3cnc4c(N(C)C)ncnc43)O[C@@H]2CO)cc1 [Puromycin, puromycin]
DDA activation of the ER stress response when protein synthesis is inhibited ([4]; 8 hours): reduced

C/C=C(/C)C(=O)O[C@H]1C(C)=C2[C@H]([C@@H]1OC(=O)CCCCCCC)[C@@](C)(OC(C)=O)C[C@H](OC(=O)CCC)[C@@]1(O)[C@H]2OC(=O)[C@@]1(C)O [thapsigargin]
XBP1s expression [1, 10]: more strongly than RBF3 | ATF4 and CHOP expression [1, 11]: more effectively than RBF3 | ATF4 and CHOP expression ([1]; thapsigargin 400 nM, tunicamycin 500 ng/ml, DTT 2 mM, listed as Thapsigargin): more strongly than RBF3 | ATF4 and CHOP expression [3, 13]: strongly upregulated | PERK electrophoretic mobility ([3]; 24 hours, thapsigargin 400 nM): more strongly decreased | Akt phosphorylation, wild type MEFs [5]: markedly suppressed | ER stress response / UPR, wild type MEFs [5]: induced a robust UPR | PARP cleavage, wild type MEFs [5]: strongly upregulated | CHOP, ATF4, and GRP78 upregulation in eIF2α[S51A] knock-in MEFs [5]: significantly blunted | PARP cleavage or XBP1s upregulation, effect of S51A eIF2a mutation [5]: did not affect

tunicamycin
ATF4 and CHOP expression [1, 11]: more effectively than RBF3 | Akt phosphorylation, wild type MEFs [5]: markedly suppressed | ER stress response / UPR, wild type MEFs [5]: induced a robust UPR | PARP cleavage, wild type MEFs [5]: strongly upregulated | CHOP, ATF4, and GRP78 upregulation in eIF2α[S51A] knock-in MEFs [5]: significantly blunted | PARP cleavage or XBP1s upregulation, effect of S51A eIF2a mutation [5]: did not affect
